# Assay results reported in patent US8754242B2, “Herbicides” (Syngenta Crop Protection LLC, priority 2007, dated 2014).
# Legend:
# Format in all cases: in vivo
# [1] = test system: Alopecurus myosuroides (ALOMY); experiment: Test Example 1 pre-emergence herbicidal activity; conditions: Alopecurus myosuroides, 480 h, rate 250 g/ha, evaluated 20 days later, read-out: Pre-emergence activity ALOMY (100=total damage to plant; 0=no damage to plant)
# Experimental: (§1) Monocotyledonous and dicotyledonous test plants were sown in standard soil in pots. After cultivation for one day (pre-emergence) or after 10 days cultivation (post-emergence) under controlled conditions in a glasshouse, the plants were sprayed with an aqueous spray solution derived from the formulation of the technical active ingredient in 0.6 ml acetone and 45 ml formulation solution containing 10.6% Emulsogen EL (Registry number 61791-12-6), 42.2% N-methylpyrrolidone, 42.2% dipropylene glycol monomethyl ether (Registry number 34590-94-8) and 0.2% X-77 (Registry number 11097-66-8). The test plants were then grown in a greenhouse under optimum conditions until, 15 days later for post-emergence and 20 days for pre-emergence, the test was evaluated (100=total damage to plant; 0=no damage to plant).
# (§2) Alopecurus myosuroides (ALOMY), Avena fatua (AVEFA), Lolium perenne (LOLPE), Setaria faberi (SETFA), Digitaria sanguinalis (DIGSA), Echinochloa crus-galli (ECHCG)
# [2] = test system: Avena fatua (AVEFA); experiment: Test Example 1 pre-emergence herbicidal activity; conditions: Avena fatua, 480 h, rate 250 g/ha, evaluated 20 days later, read-out: Pre-emergence activity AVEFA (100=total damage to plant; 0=no damage to plant)
# Experimental: as §1, §2
# [3] = test system: Digitaria sanguinalis (DIGSA); experiment: Test Example 1 pre-emergence herbicidal activity; conditions: Digitaria sanguinalis, 480 h, rate 250 g/ha, evaluated 20 days later, read-out: Pre-emergence activity DIGSA (100=total damage to plant; 0=no damage to plant)
# Experimental: as §1, §2
# [4] = test system: Echinochloa crus-galli (ECHCG); experiment: Test Example 1 pre-emergence herbicidal activity; conditions: Echinochloa crus-galli, 480 h, rate 250 g/ha, evaluated 20 days later, read-out: Pre-emergence activity ECHCG (100=total damage to plant; 0=no damage to plant)
# Experimental: as §1, §2
# [5] = test system: Lolium perenne (LOLPE); experiment: Test Example 1 pre-emergence herbicidal activity; conditions: Lolium perenne, 480 h, rate 250 g/ha, evaluated 20 days later, read-out: Pre-emergence activity LOLPE (100=total damage to plant; 0=no damage to plant)
# Experimental: as §1, §2
# [6] = test system: Setaria faberi (SETFA); experiment: Test Example 1 pre-emergence herbicidal activity; conditions: Setaria faberi, 480 h, rate 250 g/ha, evaluated 20 days later, read-out: Pre-emergence activity SETFA (100=total damage to plant; 0=no damage to plant)
# Experimental: as §1, §2
# [7] = test system: Alopecurus myosuroides (ALOMY); experiment: Test Example 1 post-emergence herbicidal activity; conditions: 360 h, rate 125 g/ha, evaluated 15 days later, read-out: Post-emergence activity ALOMY (100=total damage to plant; 0=no damage to plant)
# Experimental: as §1, §2
# [8] = test system: Avena fatua (AVEFA); experiment: Test Example 1 post-emergence herbicidal activity; conditions: 360 h, rate 125 g/ha, evaluated 15 days later, read-out: Post-emergence activity AVEFA (100=total damage to plant; 0=no damage to plant)
# Experimental: as §1, §2
# [9] = test system: Digitaria sanguinalis (DIGSA); experiment: Test Example 1 post-emergence herbicidal activity; conditions: 360 h, rate 125 g/ha, evaluated 15 days later, read-out: Post-emergence activity DIGSA (100=total damage to plant; 0=no damage to plant)
# Experimental: as §1, §2
# [10] = test system: Echinochloa crus-galli (ECHCG); experiment: Test Example 1 post-emergence herbicidal activity; conditions: 360 h, rate 125 g/ha, evaluated 15 days later, read-out: Post-emergence activity ECHCG (100=total damage to plant; 0=no damage to plant)
# Experimental: as §1, §2
# [11] = test system: Lolium perenne (LOLPE); experiment: Test Example 1 post-emergence herbicidal activity; conditions: 360 h, rate 125 g/ha, evaluated 15 days later, read-out: Post-emergence activity LOLPE (100=total damage to plant; 0=no damage to plant)
# Experimental: as §1, §2
# [12] = test system: Setaria faberi (SETFA); experiment: Test Example 1 post-emergence herbicidal activity; conditions: 360 h, rate 125 g/ha, evaluated 15 days later, read-out: Post-emergence activity SETFA (100=total damage to plant; 0=no damage to plant)
# Experimental: as §1, §2
SMILES,pest or weed control at 250 g/ha [1],pest or weed control at 250 g/ha [2],pest or weed control at 250 g/ha [3],pest or weed control at 250 g/ha [4],pest or weed control at 250 g/ha [5],pest or weed control at 250 g/ha [6],pest or weed control at 125 g/ha [7],pest or weed control at 125 g/ha [8],pest or weed control at 125 g/ha [9],pest or weed control at 125 g/ha [10],pest or weed control at 125 g/ha [11],pest or weed control at 125 g/ha [12]
CCc1cc(C)cc(CC)c1C1=C(O)[C@@H]2[C@@H]3O[C@@H](C[C@H]3c3ccccc3F)[C@@H]2C1=O (racemic) [Example T170],80%,40%,70%,80%,90%,70%,80%,70%,40%,100%,80%,40%
CCc1cc(C)cc(CC)c1C1=C(OC(=O)CC(C)C)[C@H]2[C@@H](C1=O)[C@@H]1CC[C@H]2O1 [Example P19],100%,100%,100%,100%,100%,100%,100%,100%,100%,100%,100%,100%
CCc1cc(C)cc(CC)c1C1=C(O)[C@@H]2[C@@H]3O[C@@H](C[C@H]3c3ccc(C)c(Cl)c3)[C@@H]2C1=O [Example T151],50%,20%,80%,40%,60%,20%,80%,80%,70%,80%,30%,10%
CCc1cc(C)cc(CC)c1C1=C(O)[C@@H]2[C@@H]3O[C@@H](C[C@H]3c3ccc(C#N)cc3)[C@@H]2C1=O [Example T160],30%,50%,40%,40%,40%,70%,90%,90%,100%,100%,70%,100%
CCc1cc(CC)c(C2=C(O)[C@H]3[C@@H](C2=O)[C@@H]2CC[C@H]3O2)c(CC)c1 [Example T5],100%,80%,100%,100%,100%,80%,70%,70%,100%,100%,80%,90%
CCCCC[C@]12C=C[C@H](O1)[C@@H]1C(=O)C(c3c(C)cc(C)cc3C)=C(O)[C@@H]12 (racemic) [Example T42],0%,10%,0%,30%,0%,0%,0%,0%,20%,60%,10%,0%
